Measured values published in patent publication EP0375449B1, “Benzopyran-type compounds” (BEECHAM GROUP PLC, priority 1988, dated 1990).

Experiments:
[1] = test system: Spontaneously hypertensive rats; experiment: Antihypertensive activity: systolic blood pressure by tail cuff method; format: in vivo; settings: maximum at 1-4 hours post dose
Experimental: Systolic blood pressures were recorded by a modification of the tail cuff method described by I.M. Claxton, M.G. Palfreyman, R.H. Poyser, R.L. Whiting, European Journal of Pharmacology, 37, 179 (1976). A W+W BP recorder, model 8005 was used to display pulses. Prior to all measurements rats were placed in a heated environment (33.5 ± 0.5 °C) before transfer to a restraining cage. Each determination of blood pressure was the mean of at least 5 readings. Spontaneously hypertensive rats (ages 12-18 weeks) with systolic blood pressures >180 mmHg were considered hypertensive.

trachea = experiment: Bronchodilator activity: relaxation of isolated tracheal spirals; format: tissue-based, guinea pigs; settings: Cavia porcellus; fall in resting tension as percentage of total relaxation evoked by 10⁻³M isoprenaline; guinea pig tracheal spirals, Krebs solution 37°C; read-out: IC₅₀
Experimental: Male guinea pigs (300-600g) were stunned by a blow to the head and bled from the carotid artery. The trachea was exposed, dissected free of connective tissue, and transferred to oxygenated Krebs solution at 37 °C. Next, spirals (2 per trachea) were prepared by cutting the whole trachea spirally along its longitudinal axis and then dividing this spiral lengthwise. Each preparation was mounted, using silk thread, in a 10ml organ bath filled with krebs solution at 37 °C and bubbled with 5% CO₂ with O₂. The resting tension of the preparations was set at 2g and changes in muscle tension were monitored isometrically by means of a UFI (2oz) force and displacement transducer (Ormed Ltd) connected to a Linseis pen recorder. All preparations were allowed to equilibrate for 60 minutes. During this equilibration period the preparations were washed by upward displacement at 15 minute intervals and, if necessary, the resting tension was readjusted to 2g using a mechanical micromanipulator system.
Once a steady resting tension had been obtained, the preparations were dosed simultaneously with the test compound (10⁻⁸-2x10⁻⁵M), and finally a maximum relaxation achieved by addition of 10⁻³M isoprenaline. The fall in tension evoked by the test compound was expressed as a percentage of the total relaxation evoked in the presence of 10⁻³ isoprenaline. […]

Row | SMILES | % b.p. fall ([1]; Dose 3.0 mg/kg) [%] | % b.p. fall ([1]; Dose 0.3 mg/kg) | other results
1 | CC(C)(C)OC(=O)N[C@H]1[C@H](O)c2cc(C#N)ccc2OC1(C)C (relative stereo) [Example E1, trans-6-Cyano-2,2-dimethyl-3,4-dihydro-3-(t-butoxycarbonyl)amino-2H-1-benzopyran-4-ol] | 30 | – | –
2 | CC1(C)Oc2ccc(C#N)cc2[C@@H](O)[C@@H]1NC(=O)c1ccc(F)cc1 (relative stereo) [Example E3, trans-6-Cyano-2,2-dimethyl-3,4-dihydro-3-(4-fluorobenzoylamino)-2H-1-benzopyran-4-ol] | 42 | – | –
3 | CC(C)(C)NC(=O)N[C@H]1[C@H](O)c2cc(C#N)ccc2OC1(C)C (relative stereo) [Example E5, trans-6-Cyano-2,2-dimethyl-3,4-dihydro-3-(t-butylureido)-2H-1-benzopyran-4-ol] | – | ≧40% | IC50 (trachea): 2800 nM
4 | CC(C)NC(=O)N[C@H]1[C@H](O)c2cc(C#N)ccc2OC1(C)C (relative stereo) [Example E14, trans-6-Cyano-2,2-dimethyl-3,4-dihydro-3-(isopropylureido)-2H-1-benzopyran-4-ol] | – | 22% | –
5 | CC(C)(C)C(=O)N[C@H]1[C@H](O)c2cc(C#N)ccc2OC1(C)C (relative stereo) [Example E21, trans-6-Cyano-2,2-dimethyl-3,4-dihydro-3-trimethylacetylamino-2H-1-benzopyran-4-ol] | – | – | % b.p. fall ([1]; Dose 1.0 mg/kg): 36%
